Read-outs that look alike come from different tables or passages of the source.
Assays:
[1] = system: dsRNA treated S. furcifera adults; assay: Y-tube olfactometer behavioral trials after RNAi; format: in vivo, Sogatella furcifera; details: for number of insects choosing hexane arm / number of insects choosing volatile arm / number of insects failed (no choice): odorant vs hexane
Procedure: To test the effect of the rice odorants on the behavior of S. furcifera adults, a glass Y-tube olfactometer (inner diameter 2.0 cm, stem 13 cm, arms 10 cm, angle of arms 60°) according to the previously described ([Wang et al., 2014b]) was employed. An airtight cubic box (70 by 45 by 30 cm) was used to position Y-tube, and the Y-tube was lighted by a 30-W filament lamp 25 cm above it. Air that filtered through activated charcoal and humidified with doubly distilled water was pumped in both arms at a flow rate of 300 mL/min. Two filter paper strips (10 by 1 cm) containing 100 µL odorant source (50 µL/L) and 100 µL control hexane were placed in two holding chambers in the front of the olfactometer, respectively. A S. furcifera adult (2 days after emergence, starved for 0.5 h) was randomly chosen and placed in the stem of the Y-tube. Each insect was given 10 min to choose between the two arms of the Y-tube, the choice was noted if the planthopper reached one-half of the arms’ lengths and stayed in the arm for more than 1 min. Besides, S. furcifera was considered as having no orientation preference. Forty-five individuals were used for each compound, each insect used only once. And the dual-choice experiment was done in an environmentally controlled room (25 ± 1 °C and 50% RH). A Chi-squared test was used to analyze the behavioral assay data by using SPSS19.0 (SPSS Inc., Chicago, IL, USA) software.
S. furcifera adults (one-day-old, CO2 anesthetized) were injected with dsRNA (50 nL/adult, 2,000 ng/µL) through the membrane between the meso- and meta-thoracic legs using a Nanoinjector (Drummond Scientific, Broomall, PA, USA). Five treatments including dsOBP2, dsOBP3, dsOBP11, dsEGFP and RNase-free water (Control) were set up. Each treatment consisted of 30 adults and the experiments were repeated three times. Ten individuals were collected from each replicate to determine the effects of RNAi by qPCR post 24 h of dsRNA injection (the timepoint with maximum RNAi efficiency after injection). Meanwhile, the behavioral responses of dsRNA treated adults for volatiles which binding well to OBP and attract or repel to S. furcifera were tested using a Y-tube olfactometer as described above.

S. furcifera adults = system: S. furcifera adults; design: method as in Wang et al., 2017; details: previously reported, ref Wang et al., 2017, cited from earlier work

Row | Structure (SMILES) | behavioral response (in words) ([1]; dsOBP3 injected adults) | number of insects choosing hexane arm ([1]; dsOBP3 injected adults) | number of insects choosing volatile arm ([1]; dsOBP3 injected adults) | number of insects failed (no choice) ([1]; dsOBP3 injected adults) | behavioral response (in words) ([1]; SfurOBP2 silenced adults) | number of insects choosing hexane arm ([1]; dsOBP2 injected adults) | number of insects choosing volatile arm ([1]; dsOBP2 injected adults) | number of insects failed (no choice) ([1]; dsOBP2 injected adults) | number of insects choosing hexane arm ([1]; dsOBP11 injected adults) | number of insects choosing volatile arm ([1]; dsOBP11 injected adults) | number of insects failed (no choice) ([1]; dsOBP11 injected adults) | behavioral response of S. furcifera (in words) (S. furcifera adults) | behavioral response of S. furcifera (in words) (S. furcifera adults; listed as Plant alcohol) | behavioral response (in words) ([1]; dsOBP11 injected adults)
1 | C=C/C(C)=C/C/C=C(\C)CCC=C(C)C [α-farnesene] | no longer attracted | 11 | 12 | 15 | – | – | – | – | – | – | – | – | – | –
2 | CC(=O)/C=C/C1=C(C)CCCC1(C)C [β-Ionone] | – | 9 | 16 | 15 | significantly reduced the number of adults that attracted | 14 | 13 | 15 | 8 | 17 | 16 | – | – | –
3 | C/C(=C\CO)CCC[C@H](C)CCC[C@H](C)CCCC(C)C [plant alcohol] | – | – | – | – | – | – | – | – | 17 | 19 | 13 | significantly repellent effect | strongly repellent | lost the activation that repel

Reference: PMC6409085, “Three odorant-binding proteins are involved in the behavioral response of Sogatella furcifera to rice plant volatiles” (PeerJ, 2019)
